Article PMC5589878, “Development of Fluorescent Probes that Target Serotonin 5-HT2B Receptors” (Scientific Reports, 2017)
Like-named read-outs stand apart in the source and are kept apart here.

Legend:
[1] = target: 5-HT2A receptors (Homo sapiens, UniProt P28223); experiment: Radioligand competition binding assay at human 5-HT2A receptors; design: expressed in transfected cells; host or cells: CHO-FA4-5-HT2A cells (membranes)
[2] = target: T1, human 5-HT2C receptors (Homo sapiens, UniProt P28335); experiment: Radioligand competition binding assay at human 5-HT2C receptors
T1 construct: expressed in transfected cells; host or cells: HeLa-5-HT2C cells (membranes)
T1 sequence (P28335 33-458): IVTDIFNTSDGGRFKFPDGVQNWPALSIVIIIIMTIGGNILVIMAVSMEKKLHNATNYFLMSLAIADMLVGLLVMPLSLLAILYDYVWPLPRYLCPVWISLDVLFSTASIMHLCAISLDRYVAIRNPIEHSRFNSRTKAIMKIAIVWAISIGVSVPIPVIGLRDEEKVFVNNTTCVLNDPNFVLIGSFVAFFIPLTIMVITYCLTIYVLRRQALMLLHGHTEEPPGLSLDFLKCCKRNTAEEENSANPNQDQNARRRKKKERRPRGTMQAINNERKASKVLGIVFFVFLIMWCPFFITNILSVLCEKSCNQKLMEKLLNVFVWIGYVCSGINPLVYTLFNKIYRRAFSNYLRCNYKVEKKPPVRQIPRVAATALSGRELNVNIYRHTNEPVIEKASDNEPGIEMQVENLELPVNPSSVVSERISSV

[3] = target: T2, 5-HT2B receptors (Homo sapiens, UniProt P41595); experiment: Functional assay of IPs accumulation at human 5-HT2B receptors; format: cell-based
T2 sequence (P41595 whole entry): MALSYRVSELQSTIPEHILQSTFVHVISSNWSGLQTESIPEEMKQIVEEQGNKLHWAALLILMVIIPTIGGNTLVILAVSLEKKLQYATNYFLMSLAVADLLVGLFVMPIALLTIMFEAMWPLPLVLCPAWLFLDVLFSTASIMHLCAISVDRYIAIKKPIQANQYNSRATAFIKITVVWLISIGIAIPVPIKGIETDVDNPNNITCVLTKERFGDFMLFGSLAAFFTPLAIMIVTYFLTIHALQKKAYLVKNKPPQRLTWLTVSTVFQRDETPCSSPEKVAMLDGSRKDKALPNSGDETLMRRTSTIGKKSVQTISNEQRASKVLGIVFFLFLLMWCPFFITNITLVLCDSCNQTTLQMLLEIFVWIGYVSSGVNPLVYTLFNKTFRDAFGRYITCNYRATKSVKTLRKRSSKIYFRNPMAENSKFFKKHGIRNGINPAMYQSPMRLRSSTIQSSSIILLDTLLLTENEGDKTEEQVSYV
Method: After 24 h, growth medium was replaced by serum-free medium containing 10 μCi/mL [^3H]myo-inositol (20.3 Ci/mmol, Perkin-Elmer) for 24 h. […] After the incubation time, assay buffer was discarded and 200 μL of 100 mM formic acid was added to the cells for 30 min at 4 °C and 20 μL of the lysate were transferred to a flexiplate plate (Perkin-Elmer, Waltham, MA, USA) together with 80 μL of a solution of RNA Binding YSi SPA Beads (Perkin-Elmer, Waltham, MA, USA) to measure accumulation of [^3H]IPs (IP1,IP2, and IP3, collectively referred to as IPs).

[4] = target: T2, 5-HT2B receptors; experiment: Radioligand competition binding assay at human 5-HT2B receptors
[5] = Absorption and emission spectra (photophysical properties); format: physicochemical; conditions: 10 μM solutions
Method: The absorption and emission spectra of the fluorescent 5-HT2 ligands (10 and 12) were determined on 10 μM solutions. The most relevant fluorescent properties are collected in Fig. 5. All of the synthesized derivatives emitted fluorescence in the visible region of the spectrum, with selected fluorescent tags (Fig. 4) providing distinctive properties and excitation wavelengths. The excitation wavelengths varied from 305 to 555 nm, whereas those for emission varied from 398 to 580 nm.

[6] = [3H]Ketanserin, membranes from CHO-FA4-5-HT2A cells, read-out: Binding at 5-HT2 receptors Ki 5-HT2A
[7] = [3H]Mesulergine, membranes from HeLa-5-HT2C cells
[8] = [3H]Mesulergine, membranes from HeLa-5-HT2C cells, read-out: Binding at 5-HT2 receptors Ki 5-HT2C

Sequence of 5-HT2A receptors (P28223 whole entry): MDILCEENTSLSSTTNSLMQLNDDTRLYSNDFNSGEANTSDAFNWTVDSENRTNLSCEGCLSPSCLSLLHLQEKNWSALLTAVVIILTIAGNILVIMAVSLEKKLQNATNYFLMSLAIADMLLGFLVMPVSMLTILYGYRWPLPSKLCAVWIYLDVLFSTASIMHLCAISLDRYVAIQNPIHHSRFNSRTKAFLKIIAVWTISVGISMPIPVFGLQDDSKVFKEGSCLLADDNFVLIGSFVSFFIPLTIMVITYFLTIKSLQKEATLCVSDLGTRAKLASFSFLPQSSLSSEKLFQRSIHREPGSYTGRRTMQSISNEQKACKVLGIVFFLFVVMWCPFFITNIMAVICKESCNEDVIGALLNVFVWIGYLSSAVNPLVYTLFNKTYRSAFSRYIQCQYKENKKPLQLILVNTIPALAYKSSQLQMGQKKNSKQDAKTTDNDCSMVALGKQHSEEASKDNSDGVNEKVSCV

Question: For “3-(2-(2-(2-(2-aminopropyl)-5-iodo-4-methoxyphenoxy)ethoxy)ethoxy)-N-(3-((5-(dimethylamino)naphthalene)-1-sulfonamido)propyl)propanamide [10d]”, which Ki [1, 6] is on record?
Answer: 13 µM

Question: And the “Binding at 5-HT2 receptors % at 1 μM 5-HT2C” value [2, 7]?
Answer: 3%

Question: Which results are given for `COc1cc(CC(C)N)c(OCCCC(=O)NCCCNS(=O)(=O)c2cccc3c(N(C)C)cccc23)cc1I` (stereo not shown) [10a, 4-(2-(2-aminopropyl)-5-iodo-4-methoxyphenoxy)-N-(3-((5-(dimethyl-amino)naphthalene)-1-sulfonamido)propyl)butanamide]?
Answer: EC50 [3]: 0.0891 µM; Ki [1]: 1.71 µM; Ki [2]: 0.273 µM; Ki [4]: 0.112 µM; Δλ (Stokes shift) [5]: 147 nm; εmax [5]: 2726 M⁻¹ cm⁻¹; λmax Abs [5]: 350 nm; λmax Em [5]: 497 nm

Question: Which results are given for `COc1cc(CC(C)N)c(OCCCCCCC(=O)NCCCNS(=O)(=O)c2cccc3c(N(C)C)cccc23)cc1I` (stereo not shown) [10b, 7-(2-(2-aminopropyl)-5-iodo-4-methoxyphenoxy)-N-(3-((5-(dimethylami-no)naphthalene)-1-sulfonamido)propyl)heptanamide]?
Answer: EC50 [3]: 0.245 µM; Ki [1]: 41.2 µM; Ki [2]: 0.295 µM; Ki [4]: 0.167 µM

Question: Which results are given for `COc1cc(CC(C)N)c(OCCCCCCCCCCC(=O)NCCCNS(=O)(=O)c2cccc3c(N(C)C)cccc23)cc1I` (stereo not shown) [10c, 11-(2-(2-aminopropyl)-5-iodo-4-methoxyphenoxy)-N-(3-((5-(dimethyl-amino)naphthalene)-1-sulfonamido)propyl)undecanamide]?
Answer: melting point: 171 to 173 °C; Binding at 5-HT2 receptors % at 1 μM 5-HT2A ([1]; at 1 μM, [3H]Ketanserin, membranes from CHO-FA4-5-HT2A cells): 2%; Binding at 5-HT2 receptors % at 1 μM 5-HT2C [2, 7]: 1%; Ki [4]: 0.806 µM

Question: With `COc1cc(CC(C)N)c(OCCCC(=O)NCCCNc2ccc([N+](=O)[O-])c3nonc23)cc1I` (stereo not shown) [12b, 4-(2-(2-aminopropyl)-5-iodo-4-methoxyphenoxy)-N-(3-((7-nitroben-zo[c][1,2,5]oxadiazol-4-yl)amino)propyl)butanamide] as the compound, how does the EC50 [3] read?
Answer: 0.00327 µM

Question: And the melting point?
Answer: 158 to 160 °C

Question: And the Ki [1]?
Answer: 3.31 µM

Question: What about the Ki [2] of the same compound?
Answer: 1.81 µM

Question: And the Ki [4]?
Answer: 0.091 µM

Question: What about the “selectivity for the 5-HT2B receptor subtype” value ([4]; over 5-HT2A and 5-HT2C, from binding Ki) of the same compound?
Answer: ≥ 20 fold

Question: And the “Δλ (Stokes shift)” value [5]?
Answer: 69 nm

Question: And the εmax [5]?
Answer: 23881 M⁻¹ cm⁻¹

Question: And the “λmax Abs” value [5]?
Answer: 461 nm

Question: And the “λmax Em” value [5]?
Answer: 530 nm

Question: For `COc1cc(CC(C)N)c(OCCCC(=O)NCCCN2C(=O)c3c(c4ccccc4c4ccccc34)C2=O)cc1I` (stereo not shown) [12c, 4-(2-(2-aminopropyl)-5-iodo-4-methoxyphenoxy)-N-(3-(1,3-dioxo-1,3-dihydro-2H-dibenzo[e,g]isoindol-2-yl)propyl)butanamide], which EC50 [3] is on record?
Answer: 0.0249 µM

Question: And the Ki [1]?
Answer: 5.18 µM

Question: And the Ki [2]?
Answer: 0.616 µM

Question: What about the Ki [4] of the same compound?
Answer: 0.0869 µM

Question: What about the “Δλ (Stokes shift)” value [5] of the same compound?
Answer: 76 nm

Question: What about the εmax [5] of the same compound?
Answer: 2758 M⁻¹ cm⁻¹

Question: What about the “λmax Abs” value [5] of the same compound?
Answer: 390 nm

Question: And the “λmax Em” value [5]?
Answer: 466 nm

Question: With `COC(=O)c1c(C(=O)OCCCNC(=O)CCCOc2cc(I)c(OC)cc2CC(C)N)c2ccccc2c2ccccc12` (stereo not shown) [12d, 9-(3-(4-(2-(2-aminopropyl)-5-iodo-4-methoxyphenoxy)butanamido)pro-pyl)-10-methyl phenanthrene-9,10-dicarboxylate] as the compound, how does the EC50 [3] read?
Answer: 0.0255 µM

Question: And the Ki [1]?
Answer: 3.98 µM

Question: What about the Ki [2] of the same compound?
Answer: 1.1 µM

Question: And the Ki [4]?
Answer: 0.14 µM

Question: What about the “Δλ (Stokes shift)” value [5] of the same compound?
Answer: 98 nm

Question: And the εmax [5]?
Answer: 6813 M⁻¹ cm⁻¹

Question: And the “λmax Abs” value [5]?
Answer: 305 nm

Question: What about the “λmax Em” value [5] of the same compound?
Answer: 403 nm

Question: For `COC(=O)c1c(C(=O)OCCCNC(=O)CCCOc2cc(I)c(OC)cc2CC(C)N)c2cc(F)c(F)cc2c2cc(F)c(F)cc12` (stereo not shown) [12e, 9-(3-(4-(2-(2-aminopropyl)-5-iodo-4-methoxyphenoxy)butanamido)pro-pyl) 10-methyl 2,3,6,7-tetrafluorophenanthrene-9,10-dicarboxylate], which EC50 [3] is on record?
Answer: 0.00945 µM

Question: What about the Ki [1] of the same compound?
Answer: 2.57 µM

Question: And the Ki [2]?
Answer: 2.28 µM

Question: What about the Ki [4] of the same compound?
Answer: 0.148 µM

Question: And the “Δλ (Stokes shift)” value [5]?
Answer: 83 nm

Question: And the εmax [5]?
Answer: 18295 M⁻¹ cm⁻¹

Question: What about the “λmax Abs” value [5] of the same compound?
Answer: 315 nm

Question: And the “λmax Em” value [5]?
Answer: 398 nm

Question: Which EC50 [3] does the source give for `COC(=O)c1c(C(=O)OCCCNC(=O)CCCOc2cc(I)c(OC)cc2CC(C)N)c2cc3c(cc2c2cc4c(cc12)CCC4)CCC3` (stereo not shown) [12f, 5-(3-(4-(2-(2-aminopropyl)-5-iodo-4-methoxyphenoxy)butanamido)pro-pyl)-6-methyl-1,2,3,8,9,10-hexahydrodicyclopenta[b,h]phenanthrene-5,6-dicarbo-xylate] here?
Answer: 0.047 µM

Question: What about the Ki [1] of the same compound?
Answer: 2.32 µM

Question: What about the Ki [2] of the same compound?
Answer: 1.03 µM

Question: And the Ki [4]?
Answer: 0.136 µM

Question: What about the “Δλ (Stokes shift)” value [5] of the same compound?
Answer: 119 nm

Question: And the εmax [5]?
Answer: 12078 M⁻¹ cm⁻¹

Question: And the “λmax Abs” value [5]?
Answer: 309 nm

Question: What about the “λmax Em” value [5] of the same compound?
Answer: 428 nm

Question: What does the source list for `COC(=O)c1c(C(=O)OCCCNC(=O)CCCOc2cc(I)c(OC)cc2CC(C)N)c2cc3ccccc3cc2c2cc3ccccc3cc12` (stereo not shown) [12g, 6-(3-(4-(2-(2-aminopropyl)-5-iodo-4-methoxyphenoxy)butanamido)pro-pyl) 7-methyl pentaphene-6,7-dicarboxylate]?
Answer: melting point: 150 to 152 °C; Ki [1, 6]: 3.7 µM; Ki [2, 8]: 2.28 µM; Ki [4]: 0.283 µM; Δλ (Stokes shift) [5]: 123 nm; εmax [5]: 9977 M⁻¹ cm⁻¹; λmax Abs [5]: 375 nm; λmax Em [5]: 498 nm

Question: What does the source list for `CCCCCCC(CCCCCC)N1C(=O)c2ccc3c4ccc5c6c(ccc(c7ccc(c2c37)C1=O)c64)C(=O)N(CCCNC(=O)CCCOc1cc(I)c(OC)cc1CC(C)N)C5=O` (stereo not shown) [12h, 4-(2-(2-aminopropyl)-5-iodo-4-methoxyphenoxy)-N-(3-(1,3,8,10-tetraoxo-9-(tridecan-7-yl)-3,8,9,10-tetrahydroanthra[2,1,9-def:6,5,10-d′e′f′]diisoquinolin-2(1H)-yl)propyl)butanamide]?
Answer: melting point: 169 to 171 °C; Ki [1, 6]: 15 µM; Ki [2, 8]: 7.99 µM; Ki [4]: 1.41 µM; Δλ (Stokes shift) [5]: 70 nm; εmax [5]: 27500 M⁻¹ cm⁻¹; λmax Abs [5]: 460 nm; λmax Em [5]: 530 nm
